# Entries after “also recorded” stand apart in the source; their conditions may differ. Positions of bridges follow the written chain, without caps; N, C: chain ends. Residues, ends and D or L forms follow the SMILES beside them.
# Legend:
# [1] = system: rat ASIC1a E357A mutant channel; assay: Two-electrode voltage clamp, E357A mutant ASIC1a in X. laevis oocytes; assay type: cell-based; details: 10 µM; pH 5.5 stimulus, conditioning pH 7.4, peptide 30 s; mean ± SEM, n = 5
# Description: (§1) Figure 5 The pivotal role of residue D355 in the ASIC1a channel for the action of the A23K peptide ligand. (A,B) pH dependence of steady-state desensitization (A) and activation (B) in mutant channels (D355A and E357A) compared to the wild-type channel (wt). Each data point represents results from 5 cells. (C–E) Representative current traces illustrating the effects of A23K at a concentration of 10 µM on wt (C), D355A (D), and E357A (E) channels. Currents were evoked by a pH 5.5 stimulus following a conditioning pH of 7.4, with the peptide applied for 30 s preceding the pH stimulus. (F) Bar graph quantifying the effects depicted in (C,D) as a percentage of the corresponding control currents (n = 5). A value of 1.0, represented by a dotted line, corresponds to control measurements at pH 5.5 for each form of ASIC1a. The data are expressed as mean ± SEM; *** p < 0.001, **** p < 0.0001, ns non-significant vs. control, unpaired t-test.
# (§2) To introduce D355A and E357A substitutions, we designed two pairs of primers. For D355A substitution, the forward primer sequence was 5′–[…]–3′, and the reverse primer (R2) for D355A was 5′–CTAGGAAGTCCAGGGCAG–3′. For E357A substitution, the forward primer sequence was 5′–[…]–3′, and the reverse primer for E357A was the same as for D355A (designated as “R2”). […]
# [2] = system: rat ASIC1a D355A mutant channel; assay: Two-electrode voltage clamp, D355A mutant ASIC1a in X. laevis oocytes; assay type: cell-based; details: 10 µM; pH 5.5 stimulus, conditioning pH 7.4, peptide 30 s; n = 5
# Description: as §1, §2
# [3] = system: rat ASIC1b channel; assay: Two-electrode voltage clamp, rat ASIC1b in X. laevis oocytes; assay type: cell-based; details: 30 s preapplication, activated at pH 5.5
# Description: A small portion of the ovary was isolated from frogs under anesthesia induced by a 0.17% solution of procaine methanesulphonate (MS222) (Sigma), followed by treatment with collagenase (1 mg/mL) at room temperature for 2 h. Oocytes at stages IV and V, devoid of follicular membranes, were transferred to ND-96 medium (containing 96 mM NaCl, 5 mM HEPES, 2 mM KCl, 1.8 mM CaCl2, 1 mM MgCl2, pH 7.4). mRNA synthesis was performed from pcDNA3.1 vectors (Invitrogen, Carlsbad, CA, USA) containing the rat ASIC3 gene, as well as pCI vectors containing genes for rat ASIC1a, its mutant analogues, and ASIC1b. mRNA (2.5–10 ng) was then injected into the oocytes. For the ASIC1a/3 heteromeric channels, the mRNA encoding the ASIC1a and ASIC3 subunits were injected in a 1:5 ratio, respectively. Subsequently, the oocytes were incubated for 2–3 days at a temperature of 17–19 °C in ND96 medium supplemented with gentamicin and streptomycin (20 µg/mL each).
# Whole-cell electrophysiological recordings of ASIC channels were conducted using a two-electrode voltage-clamp setup. Microelectrodes were filled with 3 M KCl. Recordings from oocytes were carried out at a holding potential of −50 mV, with data filtered at 10 Hz and sampled at a rate of 100 Hz using an L780M ADC (LCard, Moscow, Russia). […]
# [4] = All pain tests conducted (overall); assay type: in vivo, ICR mice; details: i.m.
# Description: Adult male ICR mice (Animal Breeding Facility Branch of Shemyakin–Ovchinnikov Institute of Bioorganic Chemistry, Russian Academy of Sciences, Pushchino, Russia), weighing 20–25 g, were utilized. Animals were housed under controlled conditions, with a room temperature of 23 ± 2 °C, a 12 h light–dark cycle, and ad libitum access to food and water. Test substances were dissolved in saline. Peptides (Ugr9-1 and A23K at doses of 0.002, 0.02, and 0.2 mg/kg) and saline (for the control group) were administered intramuscularly 60 min prior to testing.
# The abdominal constriction test of visceral pain (acetic acid-induced writhing pain model) and hyperalgesia induced by complete Freund’s adjuvant (CFA-induced inflammatory pain model) were performed as previously described.
# For the von Frey filaments test, mice were positioned in a plastic chamber with access to the inflamed hind paw surface and an electronic von Frey filament (BIO-EVF, Bioseb, Vitrolles, France) was applied with gradually increasing pressure until withdrawal. Data, expressed as the strength of the applied mechanical stimulus from three applications, were averaged, with intervals between exposures of at least 1 min.
# Statistical analysis was conducted using analysis of variance (ANOVA) with post hoc Tukey’s test, and data are presented as mean ± standard deviation (S.D.).
smiles,measurement,setting,value
"CC[C@H](C)[C@H](N)C(=O)N[C@@H](CO)C(=O)N[C@H](C(=O)N[C@@H](CC(=O)O)C(=O)N1CCC[C@H]1C(=O)N1CCC[C@H]1C(=O)N[C@H]1CSSC[C@@H]2NC(=O)[C@H](CC(N)=O)NC(=O)CNC(=O)[C@H](CO)NC(=O)CNC(=O)[C@H](CC(=O)O)NC(=O)[C@H](CCCNC(=N)N)NC(=O)[C@H](Cc3c[nH]cn3)NC(=O)[C@H](Cc3ccc(O)cc3)NC(=O)[C@H](CSSC[C@@H](C(=O)NCC(=O)N[C@@H](C)C(=O)N[C@H](C(=O)O)C(C)C)NC(=O)CNC(=O)[C@H](Cc3ccc(O)cc3)NC(=O)[C@H](CCCCN)NC(=O)[C@H](CC(=O)O)NC(=O)[C@H](Cc3ccc(O)cc3)NC(=O)[C@H](C(C)C)NC2=O)NC(=O)[C@H](Cc2ccccc2)NC(=O)[C@H](CCCNC(=N)N)NC1=O)[C@@H](C)CC [A23K] (H-ISIDPPCRFCYHRDGSGNCVYDKYGCGAV-OH; disulfide 7-19, 10-26)",inhibitory effect on E357A mutant channel,[1],47.1 ± 7.7%
same,inhibitory effect on D355A mutant channel,[2],no significant effect; also recorded: entirely abolished
same,effect on rat ASIC1b channel at 50 µM,[3],Lack of effect
same,analgesic effect compared to the wild-type peptide,[4],significantly less pronounced analgesic effect compared to the wild-type peptide
